Patent US20210137858A1, “COMBINATION FORMULATION CONTAINING COLCHICINE FOR TREATMENT OR ENHANCING THE THERAPY OF LIVER DISEASE” (priority 2019, published 2021)

Columns and labels:
Type in all cases: in vivo, Wistar Rat
[1] = test system: liver fibrosis by CCl4; test: Hydroxyproline assay, CCl4 liver fibrosis, colchicine dose (Examples 1-2); settings: for Hydroxyproline: CCl4 0.4 g/kg rats
Experimental: (§1) Male Wistar Rat [about 150 g, 4 to 5-week old]
An administration plan of carbon tetrachloride (CCl4) and colchicine used in this experiment is as follows:
(1) Carbon tetrachloride: Intraperitoneal administration of 0.4 g/kg·bw, administered 3 times per week for 10 weeks • (2) Colchicine: Oral administration of 10, 50, 100 μg/kg·bw, once daily for 10 weeks
(§2) For this experiment, each group was classified as follows, and one group was used by 12 rats.
(3) CCl4-administered group [0.4 g/kg]
(4) CCl4+Colchicine [10 μg/kg]
(5) CCl4+Colchicine [50 μg/kg]
(6) CCl4+Colchicine [100 μg/kg]
The following items were measured to confirm the enhancement of the efficacy for treating liver fibrosis. Fibrosis index items were measured at 10 weeks.
(1) Fibrosis index item: hydroxyproline
Hydroxyproline assay was performed for each group to confirm the levels of […] accumulation in the liver.

[2] = test system: liver tissue of CCl4-administered rats; test: Liver histopathological examination (H&E staining) (Example 4-5); design: key to Fatty necrosis / Ballooning degeneration / Fatty change / Fibrosis: 0 point for no disease (NAD); 1 point for mild symptoms; 2 points for moderate symptoms; 3 points for severe symptoms; settings: DDB [25 mg] alone, 10 weeks
Experimental: as §1
(§3) An administration plan of carbon tetrachloride (CCl4), silymarin, colchicine, and biphenyldimethyl dicarboxylate (DDB) used in this experiment is as follows:
(§4) (1) Carbon tetrachloride: Intraperitoneal administration of 0.4 g/kg·bw, administered 3 times per week for 10 weeks
as §2
The following items were measured to confirm the enhancement of the efficacy for the treatment of liver disease (hepatitis, liver fibrosis, etc.). Serum items were measured at 4 weeks and 10 weeks, and histological items were measured at 10 weeks.
(2) Liver tissue Histology: H&E staining
In each group, when the pathological characteristics for fatty necrosis, ballooning, fatty change, and fibrosis may be identified according to severity of disease, it was evaluated by assigning 0 point for no disease (NAD), 1 point for mild symptoms, 2 points for moderate symptoms, and 3 points for severe symptoms.

[3] = test system: fibrin accumulation in the liver (CCl4); settings: DDB 25 mg/kg alone; CCl4 0.4 g/kg rats
Experimental: as §1, §3, §4
(§5) (2) Silymarin: Oral administration of 10, 30, 50 mg/kg·bw, administered once a day for 10 weeks
(§6) (3) Colchicine: Oral administration of 10 μg/kg·bw, administered once a day for 10 weeks
(§7) (4) Biphenyldimethyl dicarboxylate (DDB): Oral administration of 10, 20, 25 mg/kg·bw, administered once a day for 10 weeks
(§8) (5) UDCA: Oral administration of 30 mg/kg·bw, administered once a day for 10 weeks
as §2
(§9) (4) CCl4+DDB [25 mg/kg] administered group
(§10) (5) CCl4+Colchicine [10 μg/kg]+DDB [25 mg/kg] administered group
(§11) (6) CCl4+Colchicine [10 μg/kg]+DDB [20 mg/kg] administered group
(§12) (7) CCl4+Colchicine [10 μg/kg]+DDB [10 mg/kg] administered group
(§13) (8) CCl4+Silymarin [50 mg/kg] administered group
(§14) (9) CCl4+Colchicine [10 μg/kg]+Silymarin [50 mg/kg] administered group
(§15) (10) CCl4+Colchicine [10 μg/kg]+Silymarin [30 mg/kg] administered group
(§16) (11) CCl4+Colchicine [10 μg/kg]+Silymarin [10 mg/kg] administered group
(12) CCl4+Colchicine [10 μg/kg]+UDCA [30 mg/kg] administered group […]

[4] = test system: liver damage caused by CCl4; test: Blood and serum levels (albumin, ALP, ALT, AST, total protein) in CCl4-administered rats (Examples 3, 4-1 to 4-3)
Experimental: as §1, §3, §4, §5, §6, §7, §8, §2, §9, §10, §11, §12, §13, §14, §15, §16
(12) CCl4+Colchicine [10 μg/kg]+UDCA [30 mg/kg] administered group
Serum items were measured at 4 weeks and 10 weeks, and histological items were measured at 10 weeks.
(1) Serum enzyme items: Albumin, total protein concentration, ALT, AST, ALP, etc.
(§17) At this time, the dose of colchicine administered was all the same at 10 μg/kg.
as §17, §17

[5] = DDB 25 mg/kg alone, CCl4 rats, serum

Row | SMILES | Hydroxyproline ([1]; colchicine 10 μg/kg oral once daily 10 weeks) | Hydroxyproline ([1]; colchicine 50 μg/kg oral once daily 10 weeks) | Hydroxyproline ([1]; colchicine 100 μg/kg oral once daily 10 weeks) | fibrin (hydroxyproline assay), in words ([1]; colchicine-administered group vs CCl4, Table 1) | Ballooning degeneration [2] | Fatty change [2] | Fatty necrosis [2] | Fibrosis [2] | Total Score [2] | Hydroxyproline [3] | ALP [4, 5] [U/L] | ALT [4, 5] [U/L] | AST [4, 5] [U/L] | Albumin [4, 5] [g/dL] | Total protein [4, 5] [g/dL] | ALP (Alkaline phosphatase) level, in words ([4]; vs CCl4 administration, Tables 2 and 4) | Albumin level, in words ([4]; vs level reduced by CCl4, Tables 2-4) | Total protein, in words ([4]; vs value reduced by CCl4, Tables 2-4)
1 | COc1cc2c(c(OC)c1OC)-c1ccc(OC)c(=O)cc1[C@@H](NC(C)=O)CC2 [Colchicine, colchicine] | 320.12 ± 13.32 μg/g of liver | 313.33 ± 12.50 μg/g of liver | 302.25 ± 10.25 μg/g of liver | significant reduction effect of fibrin | – | – | – | – | – | – | – | – | – | – | – | – | – | –
2 | COC(=O)c1cc(OC)c2c(c1-c1c(C(=O)OC)cc(OC)c3c1OCO3)OCO2 [DDB, biphenyldimethyl dicarboxylate] | – | – | – | – | 3 | 1 | 1 | 2 | 7 | 317.74 ± 9.24 μg/g of liver | 1428.90 ± 681.53 | 1543.09 ± 408.03 | 1642.24 ± 764.93 | 2.13 ± 0.09 | 5.35 ± 0.28 | the level was increased | tended to be recovered | tended to be recovered
